Measured values reported in patent publication US11612604B2, “Methods of treating cancer with PLK4 inhibitors” (LUDWIG INSTITUTE FOR CANCER RESEARCH LTD, priority 2017, dated 2023).

The molecules below were run against T1, PLK4 (Homo sapiens, UniProt O00444) (assay: Activity (IC50) of the Table 1 compounds as PLK4 inhibitors). Settings: Table 1, IC50 class.
T1 sequence (O00444 1-970): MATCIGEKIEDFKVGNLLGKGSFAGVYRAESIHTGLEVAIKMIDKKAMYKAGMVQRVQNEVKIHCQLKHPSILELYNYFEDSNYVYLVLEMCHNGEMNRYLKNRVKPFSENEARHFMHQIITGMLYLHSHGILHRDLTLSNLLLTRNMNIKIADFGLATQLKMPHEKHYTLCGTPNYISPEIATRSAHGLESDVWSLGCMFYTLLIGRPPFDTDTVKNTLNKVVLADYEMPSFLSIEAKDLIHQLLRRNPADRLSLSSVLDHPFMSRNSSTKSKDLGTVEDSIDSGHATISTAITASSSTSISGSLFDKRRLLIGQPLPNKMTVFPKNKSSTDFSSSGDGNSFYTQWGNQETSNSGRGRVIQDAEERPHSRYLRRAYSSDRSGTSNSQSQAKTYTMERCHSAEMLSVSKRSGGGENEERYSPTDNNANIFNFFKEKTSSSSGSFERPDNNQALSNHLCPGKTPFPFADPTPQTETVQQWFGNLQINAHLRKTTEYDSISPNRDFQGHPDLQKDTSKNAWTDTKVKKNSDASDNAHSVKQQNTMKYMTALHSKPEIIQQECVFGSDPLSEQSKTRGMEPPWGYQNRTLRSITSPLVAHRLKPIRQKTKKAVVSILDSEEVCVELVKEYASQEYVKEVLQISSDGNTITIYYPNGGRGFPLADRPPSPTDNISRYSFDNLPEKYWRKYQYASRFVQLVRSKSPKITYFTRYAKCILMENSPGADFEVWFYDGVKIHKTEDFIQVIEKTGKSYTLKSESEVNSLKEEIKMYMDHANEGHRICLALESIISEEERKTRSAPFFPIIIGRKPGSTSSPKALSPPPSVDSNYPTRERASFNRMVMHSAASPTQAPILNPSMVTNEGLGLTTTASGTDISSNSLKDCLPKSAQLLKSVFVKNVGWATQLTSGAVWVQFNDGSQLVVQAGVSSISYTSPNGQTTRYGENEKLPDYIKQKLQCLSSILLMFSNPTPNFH
Format: biochemical

Row | IC50 [nM] | SMILES
1 | < 100 | CNC(=O)Nc1ccc(Sc2nc(Nc3cc(C)[nH]n3)c(C)c(N3CCCCC3)n2)cc1
2 | < 100 | COc1c(Nc2cc(C)[nH]n2)nc(Sc2ccc(S(=O)(=O)CCc3cccc([N+](=O)[O-])c3F)cc2F)nc1N1CCOCC1
3 | < 100 | COc1c(Nc2cc(C)[nH]n2)nc(Sc2ccc(NC(C)=O)cc2)nc1NC1CCNCC1
4 | < 100 | COc1c(Nc2cc(C)[nH]n2)nc(Sc2ccc(S(C)(=O)=O)cc2Cl)nc1N1CCC(CCN(C)C)CC1
5 | < 100 | CCC1CCc2nc(Sc3ccc(NC(=O)C4CC4)cc3)nc(Nc3cc(C)[nH]n3)c21 (stereo not shown)
6 | < 100 | COc1c(Nc2cc(C)[nH]n2)nc(Sc2ccc(S(=O)(=O)Cc3ccccc3F)cc2)nc1N1CCOCC1
7 | < 100 | COc1c(Nc2cc(C)[nH]n2)nc(Sc2ccc(S(=O)(=O)CC(C)C)cc2)nc1N1CCN(CCN(C)C)CC1
8 | < 100 | COc1c(Nc2cc(C)[nH]n2)nc(Sc2ccc(S(=O)(=O)Cc3cccc(-c4ccccc4)c3)cc2)nc1N1CCN(CCN(C)C)CC1
9 | < 100 | COc1c(Nc2cc(C)[nH]n2)nc(Sc2ccc(C(=O)N(C)C)cc2)nc1N1CCN(CCN(C)C)CC1
10 | < 100 | COc1c(Nc2cc(C)[nH]n2)nc(Sc2ccc(S(=O)(=O)C(C)(C)C3CC3)cc2)nc1N1CCN(CCN(C)C)CC1
11 | < 100 | COc1c(Nc2cc(C)[nH]n2)nc(Sc2ccc(S(=O)(=O)Cc3ccc(Cl)cc3)cc2)nc1N1CCN(CCN(C)C)CC1
12 | < 100 | CCN(C)c1nc(Sc2ccc(NC(=O)C3CCCC3)cc2)nc(Nc2cc(C)[nH]n2)c1C
13 | < 100 | Cc1cc(Nc2nc(Sc3ccc(NC(=O)C4CCCC4)cc3)nc3c2C(C)CC3)n[nH]1 (stereo not shown)
14 | < 100 | COc1c(Nc2cc(C)[nH]n2)nc(Sc2ccc(S(=O)(=O)C(C)(C)c3cc(F)cc([N+](=O)[O-])c3F)cc2F)nc1N1CCC(CCN(C)C)CC1
15 | < 100 | CCS(=O)(=O)c1ccc(Sc2nc(Nc3cc(C)[nH]n3)c(OC)c(N3CCN(CCN(C)C)CC3)n2)cc1
16 | < 100 | CC(=O)Nc1ccc(Sc2nc(Nc3cc(C)[nH]n3)c(C)c(N3CCC(C)(O)CC3)n2)cc1
17 | < 100 | Cc1cc(Nc2nc(Sc3ccc(NC(=O)C4CCCC4)cc3)nc(N3CCNCC3)c2C)n[nH]1
18 | < 100 | COc1c(Nc2cc(C)[nH]n2)nc(Sc2ccc(NC(C)=O)cc2)nc1N1CC(C)N(CCN(C)C)C(C)C1 (stereo not shown)
19 | < 100 | COc1c(Nc2cc(C)[nH]n2)nc(Sc2ccc(S(=O)(=O)Cc3cccc([N+](=O)[O-])c3F)cc2F)nc1N1CCOC[C@H]1C
20 | < 100 | COc1c(C)nc(Sc2ccc(NC(=O)C3CC3)cc2)nc1Nc1cc(C)[nH]n1
21 | < 100 | COc1c(Nc2cc(C)[nH]n2)nc(Sc2ccc(S(C)(=O)=O)cc2F)nc1N1CCN(CCN(C)C)CC1
22 | < 100 | CC(=O)Nc1ccc(Sc2nc(Nc3cc(C)[nH]n3)c(C)c(N3CCCC3)n2)cc1
23 | < 100 | COc1c(Nc2cc(C)[nH]n2)nc(Sc2ccc(S(=O)(=O)Cc3cccc([N+](=O)[O-])c3)cc2)nc1N1CCO[C@H](C)C1

Row | IC50 [nM] | SMILES
24 | < 100 | COc1c(Nc2cc(C)[nH]n2)nc(Sc2ccc(S(=O)(=O)Cc3cccc([N+](=O)[O-])c3)cc2F)nc1N1CCOCC1
25 | < 100 | COc1c(Nc2cc(C)[nH]n2)nc(Sc2ccc(S(=O)(=O)C3(c4cccc([N+](=O)[O-])c4F)CC3)cc2F)nc1N1CCN(CCNC(C)=O)CC1
26 | < 100 | COCCN1CCN(c2nc(Sc3ccc(NC(=O)C4CC4)cc3)nc(Nc3cc(C)[nH]n3)c2OC)CC1
27 | < 100 | COc1c(Nc2cc(C)[nH]n2)nc(Sc2ccc(S(=O)(=O)Cc3cccc([N+](=O)[O-])c3O)cc2)nc1N1CCN(CCN(C)C)CC1
28 | < 100 | CNCCC1CCN(c2nc(Sc3ccc(S(=O)(=O)C(C)(C)c4cccc([N+](=O)[O-])c4F)cc3F)nc(Nc3cc(C)[nH]n3)c2OC)CC1
29 | < 100 | CC(=O)N1CCN(c2nc(Sc3ccc(NC(=O)C4CC4)cc3)nc(Nc3cc(C)[nH]n3)c2C)CC1
30 | < 100 | COc1c(Nc2cc(C)[nH]n2)nc(Sc2ccc(NC(=O)C3CCCC3)cc2)nc1N1CCN(C)CC1
31 | < 100 | CCC(=O)N1CCN(c2nc(Sc3ccc(NC(C)=O)cc3)nc(Nc3cc(C)[nH]n3)c2OC)CC1
32 | < 100 | Cc1cc(Nc2nc(Sc3ccc([N+](=O)[O-])cc3)nc3c2CCC32CCN(C(=O)C(C)(C)C)CC2)n[nH]1
33 | < 100 | COc1c(Nc2cc(C)[nH]n2)nc(Sc2ccc(NC(C)=O)cc2)nc1N1CC=CCC1
34 | < 100 | COc1c(Nc2cc(C)[nH]n2)nc(Sc2ccc(NC(=O)C3CCCC3)cc2)nc1N1CCNCC1
35 | < 100 | COc1c(Nc2cc(C)[nH]n2)nc(Sc2ccc(S(=O)(=O)Cc3ccccc3)cc2)nc1N1CCN(C2CCNCC2)CC1
36 | < 100 | CNc1nc(Sc2ccc(NC(=O)C3CC3)cc2)nc(Nc2cc(C)[nH]n2)c1OC
37 | < 100 | CCS(=O)(=O)c1ccc(Sc2nc(Nc3cc(C)[nH]n3)c(OC)c(N3CCC(CCN(C)C)CC3)n2)cc1
38 | < 100 | COc1c(Nc2cc(C)[nH]n2)nc(Sc2ccc(S(=O)(=O)C(C)(C)c3cccc([N+](=O)[O-])c3F)cc2F)nc1N1CCOC[C@@H]1CO
39 | < 100 | COc1c(Nc2cc(C)[nH]n2)nc(Sc2ccc(S(=O)(=O)Cc3ccccc3)cc2Cl)nc1N1CCN(CCN(C)C)CC1
40 | < 100 | CC(=O)Nc1ccc(Sc2nc(Nc3cc(C)[nH]n3)cc(N3CCCCC3)n2)cc1
41 | < 100 | COc1c(Nc2cc(C)[nH]n2)nc(Sc2ccc(S(=O)(=O)C(C)(C)c3cccc([N+](=O)[O-])c3F)cc2F)nc1N1CCOCC1
42 | < 100 | COc1c(Nc2cc(C)[nH]n2)nc(Sc2ccc(S(=O)(=O)C(C)(C)c3c(F)c(F)cc(F)c3F)cc2F)nc1N1CC[C@@H](N(C)C)C1
43 | < 100 | COc1c(Nc2cc(C)[nH]n2)nc(Sc2ccc(S(=O)(=O)C(F)c3cccc([N+](=O)[O-])c3F)cc2F)nc1N1CCOCC1 (stereo not shown)
44 | < 100 | COc1c(Nc2cc(C)[nH]n2)nc(Sc2ccc(NC(C)=O)cc2)nc1N1CCCCC1
45 | < 100 | COc1c(Nc2cc(C)[nH]n2)nc(Sc2ccc(NC(C)=O)cc2)nc1N1CCN(CCN)CC1
46 | < 100 | CNC(=O)Nc1ccc(Sc2nc(Nc3cc(C)[nH]n3)c(OC)c(N3CCN(CCN(C)C)CC3)n2)cc1

Row | IC50 [nM] | SMILES
47 | < 100 | COc1c(Nc2cc(C)[nH]n2)nc(Sc2ccc(S(=O)(=O)Cc3ccccc3NC(C)=O)cc2)nc1N1CCN(CCN(C)C)CC1
48 | < 100 | COc1c(Nc2cc(C)[nH]n2)nc(Sc2ccc(S(=O)(=O)Cc3ccccc3)cc2)nc1C1CCN(CCN(C)C)CC1
49 | < 100 | COc1c(Nc2cc(C)[nH]n2)nc(Sc2ccc(S(=O)(=O)c3ccccc3)cc2)nc1N1CCN(CCN(C)C)CC1
50 | < 100 | COc1c(Nc2cc(C)[nH]n2)nc(Sc2ccc(NC(C)=O)cc2)nc1N1CCC(CCN(C)C)CC1
51 | < 100 | COc1c(Nc2cc(C)[nH]n2)nc(Sc2ccc(S(=O)(=O)C(C)(C)C)cc2)nc1N1CCN(CCN(C)C)CC1
52 | < 100 | COc1c(Nc2cc(C)[nH]n2)nc(Sc2ccc(NC(C)=O)cc2)nc1N1CCN(CCCN(C)C)CC1
53 | < 100 | COc1c(Nc2cc(C)[nH]n2)nc(Sc2ccc([S+](C)[O-])cc2)nc1N1CCN(CCN(C)C)CC1 (stereo not shown)
54 | < 100 | COc1c(Nc2cc(C)[nH]n2)nc(Sc2ccc(S(=O)(=O)C(C)(C)c3cccc([N+](=O)[O-])c3F)cc2F)nc1N1CCC(CCN(C)C)CC1
55 | < 100 | Cc1cc(Nc2nc(Sc3ccc(N)cc3)nc3c2CCC32CCN(CCN(C)C)CC2)n[nH]1
56 | < 100 | CC(=O)Nc1ccc(Sc2nc(Nc3cc(C)[nH]n3)c(C)c(N(C)C(C)C)n2)cc1
57 | < 100 | Cc1cc(Nc2nc(Sc3ccc(NC(=O)C4CC4)cc3)nc3c2C(C)CC3)n[nH]1 (stereo not shown)
58 | < 100 | COc1c(Nc2cc(C)[nH]n2)nc(Sc2ccc(S(=O)(=O)C3(c4cccc([N+](=O)[O-])c4F)CC3)cc2F)nc1N1CCOCC1
59 | < 100 | Cc1cc(Nc2nc(Sc3ccc(N)cc3)nc(N(C)C(C)C)c2C)n[nH]1
60 | < 100 | CNCCN(C)c1nc(Sc2ccc(NC(=O)C3CC3)cc2)nc(Nc2cc(C)[nH]n2)c1C
61 | < 100 | Cc1cc(Nc2nc(Sc3ccc(NC(=O)C4CC4)cc3)nc(N3CCN(CCN(C)C)CC3)c2C)n[nH]1
62 | < 100 | COc1c(Nc2cc(C)[nH]n2)nc(Sc2ccc(S(=O)(=O)C(C)(C)c3cccc([N+](=O)[O-])c3F)cc2F)nc1N1CCCCC1
63 | < 100 | COc1c(Nc2cc(C)[nH]n2)nc(Sc2ccc(S(=O)(=O)C(C)(C)c3cccc([N+](=O)[O-])c3F)cc2F)nc1N1CCC(N(C)C)C1 (stereo not shown)
64 | < 100 | COCCC1CCN(c2nc(Sc3ccc(S(=O)(=O)C(C)(C)c4cccc([N+](=O)[O-])c4F)cc3F)nc(Nc3cc(C)[nH]n3)c2OC)CC1
65 | < 100 | COc1c(Nc2cc(C)[nH]n2)nc(Sc2ccc(NC(=O)C3CC3)cc2)nc1N1CCN(C)CC1
66 | < 100 | CNC(=O)Nc1ccc(Sc2nc(Nc3cc(C)[nH]n3)c(C)c(N(C)C(C)C)n2)cc1
67 | < 100 | COc1c(Nc2cc(C)[nH]n2)nc(Sc2ccc(S(=O)(=O)Cc3cccc([N+](=O)[O-])c3F)cc2F)nc1N1CCC(CCN(C)C)CC1
